Source: the NIST ThermoML archive (doi:10.1021/je0342825)

Legend:
[1] = 101.3 kPa, Liquid
[2] = xn = mol fraction of the nth substance listed; settings: 101.3 kPa, Liquid

COC(C)=O [methyl ethanoate]
[1]
Settings	mass density [kg/m3]	speed of sound [m/s]	viscosity [mPa·s]
293.15 K	933.56	1174	0.386
298.15 K	926.98	1151	0.367
303.15 K	920.34	1128	0.348

CC(=O)O [acetic acid] + O
[2]
Settings	mass density, 293.15 K [kg/m3]	mass density, 298.15 K [kg/m3]	mass density, 303.15 K [kg/m3]	speed of sound, 293.15 K [m/s]	speed of sound, 298.15 K [m/s]	speed of sound, 303.15 K [m/s]	viscosity, 293.15 K [mPa·s]	viscosity, 298.15 K [mPa·s]	viscosity, 303.15 K [mPa·s]
x1 = 0.0503	1019.37	1017.24	1014.94	1528	1533	1537	1.304	1.151	1.023
x1 = 0.1009	1034.95	1032.04	1029.02	1537	1536	1535	1.578	1.385	1.226
x1 = 0.2018	1053.88	1050	1046.07	1509	1502	1494	2.031	1.777	1.571
x1 = 0.3006	1063.42	1058.83	1054.2	1465	1454	1443	2.355	2.053	1.809
x1 = 0.4015	1068.15	1063.42	1058.66	1418	1405	1392	2.559	2.232	1.965
x1 = 0.5012	1069.68	1064.77	1059.78	1373	1359	1344	2.652	2.316	2.046
x1 = 0.6005	1068.8	1063.48	1058.24	1329	1314	1299	2.627	2.3	2.029
x1 = 0.7004	1066.55	1061.22	1055.91	1286	1270	1254	2.417	2.129	1.89
x1 = 0.8017	1062.78	1057.34	1051.9	1243	1226	1210	2.077	1.85	1.656
x1 = 0.8996	1057.35	1051.8	1046.25	1199	1183	1166	1.666	1.503	1.367
x1 = 0.9523	1053.56	1047.96	1042.35	1175	1157	1140	1.416	1.294	1.19
x1 = 1	1049.3	1043.65	1038	1149	1132	1115	1.211	1.115	1.034

CO [methanol] + CC(=O)O
[2], x2 = 0
Settings	mass density [kg/m3]	speed of sound [m/s]	viscosity [mPa·s]
293.15 K	791.9	1121	0.585
298.15 K	787.2	1104	0.545
303.15 K	782.48	1088	0.508

O [water]
[1]
Settings	viscosity [mPa·s]
293.15 K	1.003
298.15 K	0.89
303.15 K	0.797

CCOC(C)=O [ethyl acetate]
[1]
Settings	mass density [kg/m3]	speed of sound [m/s]	viscosity [mPa·s]
293.15 K	900.52	1163	0.452
298.15 K	894.43	1140	0.426
303.15 K	888.3	1118	0.403

COC(C)=O [methyl ethanoate] + CC(=O)O
[2]
Settings	mass density, 293.15 K [kg/m3]	mass density, 298.15 K [kg/m3]	mass density, 303.15 K [kg/m3]	speed of sound, 293.15 K [m/s]	speed of sound, 298.15 K [m/s]	speed of sound, 303.15 K [m/s]	viscosity, 293.15 K [mPa·s]	viscosity, 298.15 K [mPa·s]	viscosity, 303.15 K [mPa·s]
x2 = 0	933.56	926.98	920.34	1174	1151	1128	0.386	0.367	0.348
x2 = 0.0496	938.74	932.23	925.65	1177	1154	1131	0.401	0.381	0.362
x2 = 0.0956	943.44	936.98	930.46	1177	1155	1133	0.417	0.395	0.376
x2 = 0.195	953.14	946.77	940.34	1177	1155	1133	0.46	0.436	0.412
x2 = 0.3007	963.86	957.58	951.24	1176	1154	1133	0.506	0.48	0.453
x2 = 0.3902	973.23	967.02	960.77	1174	1153	1132	0.552	0.521	0.492
x2 = 0.4937	984.52	978.4	972.24	1172	1151	1131	0.617	0.58	0.547
x2 = 0.5953	996.15	990.1	984.03	1169	1149	1129	0.691	0.646	0.608
x2 = 0.6894	1007.51	1001.55	995.56	1166	1147	1127	0.775	0.725	0.68
x2 = 0.7943	1020.92	1015.05	1009.16	1162	1143	1124	0.894	0.834	0.782
x2 = 0.8987	1034.93	1029.17	1023.39	1156	1138	1120	1.037	0.962	0.896
x2 = 0.9502	1042.19	1036.49	1030.77	1153	1136	1118	1.12	1.037	0.964

CC(=O)O [acetic acid] + COC(C)=O
[2], x1 = 1
Settings	mass density [kg/m3]	speed of sound [m/s]	viscosity [mPa·s]
293.15 K	1049.3	1149	1.211
298.15 K	1043.65	1132	1.115
303.15 K	1038	1115	1.034

CO [methanol]
[1]
Settings	mass density [kg/m3]	speed of sound [m/s]	viscosity [mPa·s]
293.15 K	791.9	1121	0.585
298.15 K	787.2	1104	0.545
303.15 K	782.48	1088	0.508

CC(=O)O [acetic acid]
[1]
Settings	mass density [kg/m3]	speed of sound [m/s]	viscosity [mPa·s]
293.15 K	1049.3	1149	1.211
298.15 K	1043.65	1132	1.115
303.15 K	1038	1115	1.034

CCO [ethanol]
[1]
Settings	mass density [kg/m3]	speed of sound [m/s]	viscosity [mPa·s]
293.15 K	789.75	1162	1.187
298.15 K	785.46	1145	1.082
303.15 K	781.15	1128	0.987

CCO [ethanol] + CC(=O)O
[2], x2 = 0
Settings	mass density [kg/m3]	speed of sound [m/s]	viscosity [mPa·s]
293.15 K	789.75	1162	1.187
298.15 K	785.46	1145	1.082
303.15 K	781.15	1128	0.987
